Where two headings read alike, the source gives them in different places.
Experiments:
[1] = molecular target: SMP #1 (Serratia marcescens, UniProt P23694, N428Q/P266L); type: biochemical, S. marcescens NRRL B-23112
[2] = test system: A. suum; test: Assay for lytic activity against live A. suum; settings: A. suum
[3] = test system: R. similis; test: Assay for lytic activity against R. similis (microtiter plates); type: in vivo
Description: The assays were performed in microtiter plates. Ten microliters of R. similissuspensions were placed in microtiter plate wells. Serially diluted SMP #1 (100U in 0.1 ml stock) was added to the wells. PBS was added to a series of wells containing R. similis as a control. The nematodes were stored at 20° C. and examined for lytic effects or death at 48 and 96 hours.

Chain of SMP #1 (P23694 17-487 P266L/N428Q): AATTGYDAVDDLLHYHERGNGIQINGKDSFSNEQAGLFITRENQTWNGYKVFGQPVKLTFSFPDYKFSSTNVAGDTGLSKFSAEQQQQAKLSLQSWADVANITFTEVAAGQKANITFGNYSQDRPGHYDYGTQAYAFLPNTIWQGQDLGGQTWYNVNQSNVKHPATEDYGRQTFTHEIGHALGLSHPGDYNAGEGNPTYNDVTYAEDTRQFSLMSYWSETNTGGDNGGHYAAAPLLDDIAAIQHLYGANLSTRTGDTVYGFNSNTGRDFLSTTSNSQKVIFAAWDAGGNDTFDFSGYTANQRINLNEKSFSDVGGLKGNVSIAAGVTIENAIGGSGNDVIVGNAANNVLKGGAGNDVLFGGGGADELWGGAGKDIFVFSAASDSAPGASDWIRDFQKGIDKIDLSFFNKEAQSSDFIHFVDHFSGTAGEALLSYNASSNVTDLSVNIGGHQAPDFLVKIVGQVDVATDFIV

aprotinin
inhibition of SMP #1 proteolytic activity ([1]; aprotinin 4 μg/ml): not inhibited

Cl.NCCc1ccc(S(=O)(=O)F)cc1 [Pefabloc SC]
inhibition of SMP #1 proteolytic activity ([1]; Pefabloc SC 2000 μ/ml): not inhibited

O=C(O)CN(CCN(CC(=O)O)CC(=O)O)CC(=O)O [EDTA]
inhibition of SMP #1 proteolytic activity ([1]; EDTA 9μg/ml): inhibited

CC(C)C[C@H](NC(=O)[C@H]1O[C@@H]1C(=O)O)C(=O)NCCCCN=C(N)N [E-64]
inhibition of SMP #1 proteolytic activity ([1]; E-64 20 μg/ml): not inhibited

serratiopeptidase [SMP #2, reference compound]
lysis / mortality of the nematode on contact [2]: does not lyse or cause significant mortality
Dead (nematodes counted) ([3]; 10 U/well, 10 wells, 20° C.): 109
Live (nematodes counted) ([3]; 10 U/well, 10 wells, 20° C.): 175
% mortality ([3]; 10 U/well, 10 wells, 20° C., significant difference (p < 0.05) between treatments): 38%
lysis / mortality of the nematode on contact ([3]; R. similis): does not lyse or cause significant mortality

Source: patent US20040185566A1, “Polypeptides toxic to nematodes and methods of use” (priority 2003, published 2004)
